Our source for the IC50 and IC90 values is PubChem BioAssay AID449764 (Southern Research Specialized Biocontainment Screening …, 2010).

The experiment deals with Mycobacterium tuberculosis H37Rv growth inhibition, no glycerol. The experiment in a line: Confirmatory growth inhibition assay, Mycobacterium tuberculosis H37Rv, absence of glycerol (AID 449764).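 For all read-outs here: growth read after 7 days of incubation.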 To be noted: for IC90: measured here: IC90 growth inhibition.

For orientation: pIC50 means −log10 of the IC50, conventionally taken in molar units. For orientation: IC90 means the concentration needed for an effect of 90%. A high value points to a need for much substance.

Structures are written as SMILES. pIC50: −log10 of the molar value.

With `O=C(NCCN1CCN(c2cccc(Cl)c2)CC1)c1ccc(CSc2nc3ccncc3[nH]2)cc1`, the pIC50 was 4.66 and the IC90 is 32.1 µM.
Consider `CCCOc1ccc(N2CC(C(=O)Nc3ccccn3)CC2=O)cc1` (stereo not given), for which the pIC50 is 4.44 and the IC90 was > 100 µM.
Taken in the same sequence, the figures for `Cc1cc(C)cc(NC(=O)CCc2ccc(C)o2)c1` were 4.03 and > 100 µM.
For `C/C(=N\Nc1ccc(Cl)c(Cl)c1)c1ccc(-n2ccnc2)cc1` the same measures were 4.06 and 95.6 µM.
On to `Cc1cccc(/C=C2/S/C(=N/N=C3\CC4CCC3(C)C4(C)C)NC2=O)c1` (stereo not given), for which the pIC50 is 4.59 and the IC90 was > 100 µM.
Taken in the same sequence, the figures for `CCCCn1nc(C(=O)Nc2ccccc2N2CCCC2)c2ccccc2c1=O` were 4.09 and > 100 µM.
Taken in the same sequence, the figures for `CNC(=O)COC(=O)c1ccc(-c2nc3ccccc3s2)s1` were 5.01 and 16.3 µM.
For `COc1ccc(C(=O)/C=C/Sc2nc3ccccc3o2)cc1` the same measures were 4.04 and > 100 µM.
For `CN(CCCC1CCCC1)C(=O)CCc1nnc(-c2ccccc2)o1`, the pIC50 was 4.77 and the IC90 is 28 µM.
For `CC1(C)Cc2c(sc(NC(=O)c3ccc(C(=O)c4ccccc4)cc3)c2C(N)=O)C(C)(C)N1` the same measures were 4.64 and > 50 µM.
Taken in the same sequence, the figures for `CCNC(=S)NN=C1c2ccccc2-c2ccccc21` were 4.96 and > 25 µM.
Taken in the same sequence, the figures for `CCCCNC(=S)N/N=C/c1cccc(OCC)c1O` were 4.97 and 11.9 µM.
As for `C=CCNC(=S)N/N=C(\C)c1ccccn1`, the pIC50 was 4.63 and the IC90 amounted to 45.5 µM.
For the compound `Cc1ccc(-n2cccc2C(=S)N=P(N(C)C)(N(C)C)N(C)C)cc1`, the pIC50 was 4.61 and the IC90 is 26.1 µM.
Regarding `CCC(=O)N1c2ccc(S(=O)(=O)CCC(=O)N3CCn4c3nc3ccccc34)cc2CC1C` (stereo not given), the pIC50 was 4.63 and the IC90 stood at 27.5 µM.
For `CCOc1cc(/C=C\[N+](=O)[O-])ccc1OCC(=O)Nc1ccccc1C` the same measures were 4.53 and 59 µM.
In the case of `COc1ccccc1NC(=O)C(C)OC(=O)/C=C/c1ccc2ccccc2n1` (stereo not given), the pIC50 was 5.16 and the IC90 came out at 13.1 µM.
For `CCOC(=O)/C(=N/Nc1ccccc1)c1csc(Nc2ccccc2)n1` the same measures were 4.38 and > 100 µM.
For `COC(=O)CCn1c(C)cc(C(=O)COc2ccccc2C(N)=O)c1C` the same measures were 4.96 and 14.8 µM.
`CN(CC(=O)Nc1ccc(F)c(F)c1F)c1cnccn1`: the negative logarithm of the IC50 (pIC50) is 5.01 and the IC90 came to 13.4 µM.
For `C[C@@H]1CN([C@H](C)CO)C(=O)c2cc(NC(=O)Nc3ccc(C(F)(F)F)cc3)ccc2O[C@H]1CN(C)S(=O)(=O)c1cccs1` the same measures were 4.66 and 24.1 µM.
For `CC(C)OC(=O)CSc1nc2ccccc2s1` the same measures were 4.66 and 36.7 µM.
Taken in the same sequence, the figures for `O=C(CCl)Nc1cccn2ncnc12` were 5.48 and 7.56 µM.
For `CC(=NCc1ccc2c(c1)OCO2)C1=C(O)c2ccccc2C1=O`, the pIC50 was > 6.70 and the IC90 came to 1.4 µM.
Taken in the same sequence, the figures for `Cc1ccccc1-n1sc2cc(F)ccc2c1=O` were 4.66 and 24.6 µM.
For `CN1CCN(C(=O)/C=C/c2cn(-c3ccccc3)nc2-c2ccc3c(c2)OCCO3)CC1`, the IC90 was > 100 µM.
With `c1ccc2c(c1)CCN(c1nc3cc4c(cc3s1)OCCO4)C2`, the pIC50 is 4.46 and the IC90 turned out to be 55 µM.
For `COc1ccc2c(c1)[C@@H]1[C@H](CO2)[C@H](c2ccccc2)[C@]2(C)C(=O)Nc3ccc(C)cc3C(=O)N12` the same measures were 4.15 and > 100 µM.
Consider `CC(C)(C)c1ccc(C(O)CCCN2CCC(C(O)(c3ccccc3)c3ccccc3)CC2)cc1` (stereo not given), for which the pIC50 is 4.92 and the IC90 came to 13.7 µM.
Taken in the same sequence, the figures for `CCOC(=O)C1CCN(c2nc3cc(OC)ccc3cc2C#N)CC1` were 4.08 and > 100 µM.
Taken in the same sequence, the figures for `CCN(CC)C(=O)Oc1ccc2c(=O)c(-c3ccc(OC)cc3)coc2c1` were 4.28 and > 100 µM.
Taken in the same sequence, the figures for `C=CCNC(=O)c1onc(CCl)c1C(=O)OC` were 5.24 and 14.2 µM.
Turning to `CCCCCNc1nc(N2CCCC2)c2c(c1C#N)CCN(C)C2`, the IC90 was > 100 µM.
Regarding `Cc1cc(/C=C\c2ccc3cc(N(C)C)ccc3[n+]2C)c(C)n1-c1ccccc1`, the pIC50 is 5.49 and the IC90 turned out to be 4.49 µM.
Taken in the same sequence, the figures for `CNc1ccccc1C(=O)OC(C)C(=O)Nc1ccc(Cl)cn1` (stereo not given) were 4.45 and 65.3 µM.
For the compound `COC(=O)CC(=O)N1CCN(c2ccc(Cl)c(Cl)c2)CC1`, the pIC50 is 4.35 and the IC90 amounted to 74.8 µM.
Taken in the same sequence, the figures for `CCc1c(C)sc(NC(=S)N2CCN(CC)CC2)c1C(=O)OC` were 4.87 and > 25 µM.
For `COc1ccc(CNc2ncnc3c2[nH]c2cc(OC)c(OC)cc23)cc1` the same measures were 4.09 and 89.5 µM.
Taken in the same sequence, the figures for `OC(CNCC(c1ccc(Cl)cc1Cl)c1c[nH]c2ccccc12)c1ccccc1` (stereo not given) were 4.64 and 26.2 µM.
For `CCCCOC(=O)CCN1C(=O)/C(=C2\SC(=S)N(CCC(=O)OCCCC)C2=O)SC1=S`, the negative-log IC50 (pIC50) was 5.26 and the IC90 is 10.6 µM.
For `CC(C)[C@H](CO)N(Cc1cccc(F)c1)c1nc(Nc2cccc(Cl)c2)c2ncn(C(C)C)c2n1` the same measures were 4.43 and 57.4 µM.
Taken in the same sequence, the figures for `O=c1cc(-c2ccccc2Cl)oc2ccc([N+](=O)[O-])c(O)c12` were 4.67 and 28.2 µM.
For `CC(C)Nc1nc(NC(C)C)nc(N(C)N)n1` the same measures were 4.49 and 47.9 µM.
With `C#CCOCCOCCOCCNc1nc(N2CCN(C(=O)C(Cc3ccc(O)cc3)n3cc(C(N)CC(C)C)nn3)CC2)nc(N2CCN(C(=O)C(Cc3cc4ccccc4[nH]3)n3cc(C(N)Cc4ccc(O)cc4)nn3)CC2)n1` (stereo not given), the pIC50 was 4.77 and the IC90 came to 23.8 µM.
Taken in the same sequence, the figures for `CCOC(=O)c1c(C)[nH]c(N=Nc2ccc(OC)cc2)c1C` were 4.95 and > 25 µM.
For `COc1ccc(N(CC(=O)Nc2cc(Cl)ccc2C)S(=O)(=O)c2c(C)n[nH]c2C)cc1` the same measures were 4.39 and 52.7 µM.
On to `Cc1ccc(-c2csc3nc4c5ccccc5c(NCCCN5CCOCC5)nn4c(=O)c23)cc1`, for which the negative-log IC50 (pIC50) was 4.54 and the IC90 was 39.8 µM.
For `c1ccc(Nc2nc(N3CCCCC3)nc(N3CCNCC3)n2)cc1` the same measures were 4.35 and 69.4 µM.
Taken in the same sequence, the figures for `CCCCOC(=O)CSc1nnc(-c2ccc(Cl)cc2Cl)o1` were > 6.70 and 7.21 µM.
For `COc1ccc(-c2oc3cccnc3c2/C=C/c2ccc(OC)c(OC)c2)cc1` the same measures were 4.25 and > 100 µM.
Consider `Cc1cc(=O)n2[nH]c(Nc3cccc(Cl)c3)nc2n1`, for which the negative-log IC50 (pIC50) was 4.54 and the IC90 was found to be 68 µM.
For `CSC(=S)NCc1cccnc1` the same measures were 4.54 and 41.9 µM.
For `O=C1Nc2cc(C(=O)NCCCN3CCOCC3)ccc2S/C1=C/c1cccc(Cl)c1` the same measures were 4.48 and 44.9 µM.
For `O=C1/C(=N\S(=O)(=O)c2cccs2)C([n+]2ccc(CCCc3ccccc3)cc2)=C([O-])c2ccccc21` the same measures were 4.64 and 25.7 µM.
With `CCn1cc(Br)c(C(=O)Nc2ccc(C(=O)OC(C)C)cc2)n1`, the pIC50 was 4.41 and the IC90 came out at 59.5 µM.
For `C=CCOc1ccccc1CN(C(=O)CCl)c1ccc2c(c1)OCO2` the same measures were 5.57 and 3.72 µM.
Taken in the same sequence, the figures for `CCn1c2ccccc2c2cc(CNCc3ccc(OC)cc3OC)ccc21` were 4.91 and 14 µM.
Taken in the same sequence, the figures for `CCCC(/C=C/c1ccc(OC(C)=O)cc1)=C1/c2ccccc2C(=O)N1c1ccccc1` were 4.88 and 20.9 µM.
`CCOc1cccc2cc(C(=O)Nc3nccs3)c(=O)oc12`: the pIC50 was 5.62 and the IC90 was found to be 15.3 µM.
For `O=C(C[n+]1cc(-c2ccc(Cl)cc2)n2c1CCC2)Nc1nc(-c2ccccc2)cs1` the same measures were 4.63 and 26.7 µM.
Taken in the same sequence, the figures for `O=C(NNc1nc(-c2ccccc2)cs1)c1ccccc1` were 4.40 and > 100 µM.
As for `Nc1n[nH]c(C2CC2)c1N=Nc1ccc(Cl)cc1`, the pIC50 is 4.49 and the IC90 was found to be 54.3 µM.
Taken in the same sequence, the figures for `Cc1ccc(-n2[nH]c(C)c(C=Nc3ccc(S(=O)(=O)Nc4nccs4)cc3)c2=O)c(C)c1` were 5.20 and 12 µM.
Taken in the same sequence, the figures for `CC(C)(C)c1ccc(Cn2c(=N)n(CC(O)c3ccco3)c3ccccc32)cc1` (stereo not given) were 4.63 and 25.6 µM.
Take `CN(C)c1ccc(N=Nc2ccccc2C(=O)OCC(=O)NCC2CCCCC2)cc1`: the pIC50 was 4.66 and the IC90 came out at 24.9 µM.
Taken in the same sequence, the figures for `COC(=O)CCCCC1SCC(NC(=O)c2ccccc2)C1=O` (stereo not given) were 4.43 and 49.8 µM.
For the compound `O=[N+]([O-])c1ccc(-n2cnc3ccccc32)c([N+](=O)[O-])c1`, the pIC50 is 4.02 and the IC90 was > 100 µM.
In the case of `COc1ccc(OC)c(CN2CCN(C(=O)CNC(=O)c3ccc(C(C)(C)C)cc3)CC2)c1`, the pIC50 is 4.20 and the IC90 came to 91.1 µM.
For `COc1cc(/C=C/c2cc[n+](C)cc2)ccc1OCC(=O)Nc1ccc(Cl)c(Cl)c1` the same measures were 4.60 and 28 µM.
For `COc1ccc(C(=O)c2c(C(F)(F)F)oc3c2C(=O)c2ccccc2C3=O)cc1OC` the same measures were 4.78 and 22.1 µM.
Taken in the same sequence, the figures for `O=c1[nH]c2ccccc2c2oc(CCl)nc12` were 5.13 and 22.1 µM.
